Data on four compounds can be found in patent publication US20230147389A1, “Transdermal Drug Delivery System for Delivering a Drug to a Patient” (priority 2021, published 2023).

The conditions of data set [1]: pig.
From the text: Further, the rate of permeation may be determined using the Attenuated Total Reflection Fourier Transform Infrared Spectroscopy (ATR-FTIR), and multivariate modeling. […] The flux results may be obtained based on comprehensive in vitro permeation studies by using the pig abdominal skin samples, that may be normalized to reflect the equivalence of 0.10 cm skin thickness.
A proprietary chemometric modeling method may be used to perform quantitative analysis based on spectral data. In addition, the method may be used to determine the concentration of the active ingredient dissolved in the EthoGel formulation.
The skin permeation study may be conducted using a Bruker ATR-FTIR instrument (Model Alpha; Bruker Optics Ltd., MA, USA) equipped with a 2×2 mm diamond spectral window. Pig abdominal skin samples may be obtained from a local meat supplier. The skin samples may be treated by removing the fat and connecting tissues from the dermis side, followed by cutting them into 2×2 cm-size pieces and keeping them at freezing temperature for later use. Further, skin thickness may be measured before the experiment by allowing the skin sample to warm to room temperature and by using a Material Thickness Meter (Model No. PCE-CT 26; PCE Americas Inc, Jupiter, Fla., USA).
In a typical experiment, the skin sample may be put on the spectral window of the spectrometer with the dermis side facing the window. Further, about 1 g of the EthoGel formulation may be applied on the stratum corneum side of the skin sample, which may be covered by an applicator with an area of 3.5 cm^2 to minimize the loss of permeation enhancers (i.e., ethanol) through evaporation from the formulation. IR spectra may be taken at 15-60 min intervals and the experiment may be continued for up to 72 hours when needed. Further, the spectra may be used for calculating w/w % of the active ingredient (ibuprofen or diclofenac), ethanol, and glycerin on the dermis side of the skin. Chemometric modeling may be conducted using the software Unscrambler (CAMO Software AS, Oslo, Norway). The diffusion coefficients of the active ingredient, ethanol, and glycerin can be calculated using the following equation:
where D is the diffusion coefficient (cm2/H), L is the lag time (hour) and h is the skin thickness (cm).
The flux J (μg/cm2/H) is calculated using the following equation:
where D is the diffusion coefficient, C is the concentration (μg/mL) of the active ingredient dissolved in the EthoGel formulation and h is the thickness of the skin.
For data set [2] the following is noted: current marketed TD patch products; per 24 hours; cited from earlier work.

Structures are written as SMILES. Read-outs that look alike come from different tables or passages of the source.

Take `O=C(O)Cc1ccccc1Nc1c(Cl)cccc1Cl` [diclofenac, Diclofenac]: in data set [1], the “flux achieved by EGATDDS” value is reported as 5-324 μg/cm2/H. In addition, the flux in data set [1] (1 w/w %) is 54 μg/cm2/H. Turning to `CC(C)Cc1ccc(C(C)C(=O)O)cc1` (stereo not drawn) [ibuprofen, Ibuprofen], the “flux achieved by EGATDDS” value in data set [1] is reported as 25-1337 μg/cm2/H. In data set [1] (4 w/w %), this compound came in with a flux of 283 μg/cm2/H.

For `CCCN(CCc1cccs1)[C@H]1CCc2c(O)cccc2C1` [ritigotine], the “amount of drug delivered in 24 hours” value in data set [2] is 1 mg. For the compound `CCN(C)C(=O)Oc1cccc([C@H](C)N(C)C)c1` [rivastigmine], the “amount of drug delivered in 24 hours” value in data set [2] is reported as 4.5 mg.
